Reference: patent US20160257697A1, “THIOPHENE-SUBSTITUTED TETRACYCLIC COMPOUNDS AND METHODS OFUSE THEREOF FOR THE TREATMENT OF VIRAL DISEASES” (priority 2013, published 2016)
Read-outs that look alike come from different tables or passages of the source.

What was measured:
Experiment in all cases: microbe, parasite or virus in culture
Format in all cases: cell-based, Hepatitis C virus (HCV)
HCV replicon 1A = settings: Replicon Assay A
How it was run: (§1)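 Compound is added to replicon cells plated at 2000 cells/well (0.5% DMSO, 5% FBS). After 3 days the cells are washed and lysed, and HCV RNA and cyclophilin mRNA are quantified by multiplex RT-PCR against a standard curve of known replicon total RNA.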

HCV replicon 2B = settings: read-out: 2B IC50, Replicon Assay A
How it was run: as §1

HCV replicon 1AY93H = settings: read-out: 1A Y93H IC50, Replicon Assay A
How it was run: as §1

HCV replicon 1AQ30D = settings: Replicon Assay B
HCV replicon 1B = settings: Replicon Assay B
[1] = read-out: 1A Q30D IC50, replicon 1AQ30D
[2] = Hepatitis C virus, read-out: 1A Q30D IC50 (nM), replicon 1AQ30D
[3] = Hepatitis C virus, read-out: 1A Q30D IC50, HCV replicon 1A Q30D
[4] = Hepatitis C virus, HCV replicon 1B
[5] = read-out: 1A Q30D IC50, HCV replicon 1A Q30D

CCc1ccc(C2Oc3cc(-c4cnc([C@@H]5CCCN5C(=O)C(NC(=O)OC)C5CCOC(C)(C)C5)[nH]4)cc(F)c3-c3cc4cc(-c5cnc([C@@H]6CCCN6C(=O)C(NC(=O)OC)C6CCOC(C)(C)C6)[nH]5)ccc4n32)s1 (single isomer, unassigned) [Compound 296]
IC50 (HCV replicon 1A; replicon 1A): 2.8 pM | IC50 (HCV replicon 2B; replicon 2B): 0.005 nM | IC50 (HCV replicon 1AY93H; replicon 1AY93H): 0.002 nM | IC50 (HCV replicon 1AQ30D; [1]): 0.005 nM | IC50 (HCV replicon 1B; replicon 1B): 3.3 pM

COC(=O)N[C@H](C(=O)N1CCC[C@@H]1c1ncc(-c2cc(F)c3c(c2)OC(c2ccc(C(C)C)s2)n2c-3cc3cc(-c4c[nH]c([C@@H]5CCCN5C(=O)[C@H](NC(=O)OC)C5C[C@@H](C)O[C@@H](C)C5)n4)ccc32)[nH]1)C(C)C (some centres unmarked) [Compound 241]
IC50 (HCV replicon 1A; replicon 1A): 1.6 pM | IC50 (HCV replicon 2B; replicon 2B): 0.016 nM | IC50 (HCV replicon 1AY93H; replicon 1AY93H): 0.005 nM | IC50 (HCV replicon 1AQ30D; [1]): 0.033 nM | IC50 (HCV replicon 1B; replicon 1B): 2.4 pM

CCc1ccc(C2Oc3cc(-c4cnc([C@@H]5CCCN5C(=O)C(NC(=O)OC)C5C[C@@H](C)O[C@@H](C)C5)[nH]4)cc(F)c3-c3cc4cc(-c5cnc([C@@H]6CCCN6C(=O)C(NC(=O)OC)C6C[C@@H](C)O[C@@H](C)C6)[nH]5)ccc4n32)s1 (single isomer, unassigned) [Compound 300]
IC50 (HCV replicon 1A; replicon 1A): 2.4 pM | IC50 (HCV replicon 2B; replicon 2B): 0.003 nM | IC50 (HCV replicon 1AY93H; replicon 1AY93H): 0.002 nM | IC50 (HCV replicon 1AQ30D; [2]): 0.006 nM | IC50 (HCV replicon 1B; Hepatitis C virus, replicon 1B): 3.2 pM

COC(=O)N[C@H](C(=O)N1CCC[C@H]1c1ncc(-c2ccc3c(c2)OC(c2cc4sccc4s2)n2c-3cc3cc(-c4c[nH]c([C@@H]5C[C@H]6C[C@H]6N5C(=O)[C@@H](NC(=O)OC)C(C)C)n4)ccc32)[nH]1)C(C)C (single isomer, unassigned) [Compound 716]
IC50 (HCV replicon 1A; HCV replicon 1A): 3.8 pM | IC50 (HCV replicon 2B; HCV replicon 2B): 2.33 nM | IC50 (HCV replicon 1AY93H; HCV replicon 1A Y93H): 1.28 nM | IC50 (HCV replicon 1AQ30D; [3]): 28 nM | IC50 (HCV replicon 1B; [4]): 4 pM

COC(=O)NC(C(=O)N1[C@@H]2C[C@@H]2C[C@H]1c1ncc(-c2ccc3c(c2)cc2n3C(c3ccc(C(F)F)s3)Oc3cc(-c4cnc([C@@H]5CCCN5C(=O)[C@@H](NC(=O)OC)C(C)C)[nH]4)cc(F)c3-2)[nH]1)C1CCOC(C)(C)C1 (single isomer, unassigned) [Compound 415]
IC50 (HCV replicon 1A; HCV replicon 1A): 2.3 pM | IC50 (HCV replicon 2B; HCV replicon 2B): 0.0126 nM | IC50 (HCV replicon 1AY93H; HCV replicon 1A Y93H): 0.0042 nM | IC50 (HCV replicon 1AQ30D; [3]): 0.0424 nM | IC50 (HCV replicon 1B; [4]): 2.4 pM

COC(=O)N[C@H](C(=O)N1CCC[C@H]1c1ncc(-c2cc(F)c3c(c2)OC(c2cc4ccccc4s2)n2c-3cc3cc(-c4cnc([C@@H]5C[C@H]6C[C@H]6N5C(=O)[C@@H](NC(=O)OC)C(C)C)[nH]4)ccc32)[nH]1)C(C)C (single isomer, unassigned) [Compound 616]
IC50 (HCV replicon 1A; HCV replicon 1A): 2.9 pM | IC50 (HCV replicon 2B; HCV replicon 2B): 0.266 nM | IC50 (HCV replicon 1AY93H; HCV replicon 1A Y93H): 0.0205 nM | IC50 (HCV replicon 1AQ30D; [5]): 0.538 nM | IC50 (HCV replicon 1B; HCV replicon 1B): 2 pM

COC(=O)NC(C(=O)N1[C@@H]2C[C@@H]2C[C@H]1c1ncc(-c2ccc3c(c2)cc2n3C(c3ccc(C4CC4)s3)Oc3cc(-c4cnc([C@@H]5CCCN5C(=O)[C@@H](NC(=O)OC)C(C)C)[nH]4)cc(F)c3-2)[nH]1)C1CCOC(C)(C)C1 (single isomer, unassigned) [Compound 276]
IC50 (HCV replicon 1A; Hepatitis C virus, replicon 1A): 1.5 pM | IC50 (HCV replicon 2B; replicon 2B): 0.005 nM | IC50 (HCV replicon 1AY93H; replicon 1AY93H): 0.001 nM | IC50 (HCV replicon 1AQ30D; [2]): 0.018 nM | IC50 (HCV replicon 1B; Hepatitis C virus, replicon 1B): 2.4 pM

COC(=O)N[C@H](C(=O)N1CCC[C@H]1c1ncc(-c2ccc3c(c2)OC(c2ccc(C4CC4)s2)n2c-3c(F)c3cc(-c4cnc([C@@H]5C[C@H]6C[C@H]6N5C(=O)[C@@H](NC(=O)OC)C(C)C)[nH]4)ccc32)[nH]1)C(C)C (single isomer, unassigned) [Compound 613]
IC50 (HCV replicon 1A; HCV replicon 1A): 2.5 pM | IC50 (HCV replicon 2B; HCV replicon 2B): 0.342 nM | IC50 (HCV replicon 1AY93H; HCV replicon 1A Y93H): 0.0157 nM | IC50 (HCV replicon 1AQ30D; [5]): 0.992 nM | IC50 (HCV replicon 1B; HCV replicon 1B): 2.3 pM

CCc1ccc(C2Oc3cc(-c4cnc([C@@H]5CCCN5C(=O)[C@@H](NC(=O)OC)C(C)C)[nH]4)cc(C)c3-c3cc4cc(-c5cnc([C@@H]6CCCN6C(=O)C(NC(=O)OC)C6C[C@@H](C)O[C@@H](C)C6)[nH]5)ccc4n32)s1 (single isomer, unassigned) [Compound 543]
IC50 (HCV replicon 1A; Hepatitis C virus, HCV replicon 1A): 5.43 pM | IC50 (HCV replicon 2B; HCV replicon 2B): 0.0111 nM | IC50 (HCV replicon 1AY93H; HCV replicon 1A Y93H): 0.0394 nM | IC50 (HCV replicon 1AQ30D; [3]): 0.311 nM | IC50 (HCV replicon 1B; [4]): 8.46 pM

COC(=O)N[C@H](C(=O)N1CCC[C@H]1c1ncc(-c2cc(C)c3c(c2)OC(c2ccc(C4CC4)s2)n2c-3cc3cc(-c4cnc([C@@H]5CCCN5C(=O)[C@@H](NC(=O)OC)C(C)C)[nH]4)ccc32)[nH]1)C(C)C (single isomer, unassigned) [Compound 753]
IC50 (HCV replicon 1A; HCV replicon 1A): 5.7 pM | IC50 (HCV replicon 2B; HCV replicon 2B): 0.023 nM | IC50 (HCV replicon 1AY93H; HCV replicon 1A Y93H): 0.06 nM | IC50 (HCV replicon 1AQ30D; [5]): 0.639 nM | IC50 (HCV replicon 1B; HCV replicon 1B): 2 pM
